In patent US9707244B2, “Compositions and methods for treating conditions that affect epidermis” (Gencia Corporation, priority 2013, dated 2017):

Assays:
[1] = test system: EpiDerm Full Thickness 400 (EFT-400) tissues; experiment: Mattek full-thickness skin model (EFT-400) skin thickness; format: cell-based; details: 25 nM with corticosteroid, 14 days; on average; p<0.001
Description: Following the protocol of Schoepe, we used the FTSM model to determine if co-treatment with Mitocreatine would reduce the loss in skin thickness produced by glucocorticoids.
2.5 mL of EpiDerm Full Thickness 400 (EFT-400) medium was dispensed into each well of the four 6-well plates aseptically in the tissue culture hood. The plates containing the EFT-400 tissues were removed from their plastic packaging and transferred using sterile forceps into the 6-well plates containing the 2.5 mL of EFT-400 media, making sure that no agarose adheres to the insert and that the media makes full contact with the underside of the tissue insert membrane (no air bubbles under the insert). The apical surface of the tissue should remain exposed to air (no media should be added to the side of the insert).
The tissues were equilibrated overnight at 37° C., 5% CO2. Treatment conditions are listed below in Table 5.
Day 2-13: The plates were visually examined and the media containing the test compounds was replenished each day.
Day 15: The inserts were dislodged from the support and the tissue carefully removed from the support with a scalpel.
The tissues were placed in 50 mL conical tubes containing 10% phosphate buffered formalin and sent for sectioning, histological processing and H&E staining Slides were visualized using a Leica Stereoscope equipped with a digital camera. Images were acquired and measured using ExoLabs software. Data was tabulated in Excel and the results were analyzed.

[2] = test system: ARPE-19 cells, a retinal pigmented epithelial cell line; experiment: XF24 oxygen consumption in senescent ARPE-19 cells; format: cell-based, human; details: twenty-four hours after treatment; increasing concentrations
Description: In the present invention ARPE-19 cells were used to evaluate whether Mitocreatine improves mitochondrial parameters and reduces ROS in a cell model of AMD. The cells were prematurely senescenced according to the protocol of Glotin et al. (2008). […] Cells were plated in a XF24 (Seahorse Biosciences) plate for analysis of mitochondrial activities. Twenty-four hours before analysis in the XF24 instrument, cells were treated with increasing concentrations on mitocreatine and vehicle. Twenty-four hours after treatment basal oxygen consumption rates (OCR) were assayed. […] Cells were plated in a XF24 (Seahorse Biosciences) plate for analysis of mitochondrial activities. Twenty-four hours before analysis in the XF24 instrument, cells were treated with increasing concentrations on mitocreatine and vehicle. Twenty-four hours after treatment FCCP-stimulated oxygen consumption rates (maximal OCR) were assayed.

SMILES: CN(CC(=O)NCCC[P+](c1ccccc1)(c1ccccc1)c1ccccc1)C(=N)N.Cl.[Cl-] [Mitocreatine, N^2-[ammonio(imino)methyl]-N^2-methyl-N-[3-(triphenylphosphonio)propyl] glycinamide dichloride]
- improvement of skin thickness [1]: 50%
- basal oxygen consumption [2]: dose-dependent increase
- maximal oxygen consumption (FCCP-stimulated) [2]: dose-dependent increase
